Legend:
Format in all cases: cell-based
DR4 = test: Association of endogenous MADD with DR4 in HeLa cells (immunoprecipitation); conditions: LY 10 μM 1 h
Experimental: (A) Phosphorylation status of MADD could influence its binding to DR4. HEK293 cells were transfected with wtMADD or MADD mutants. 36 h after transfection, the cells were harvested for immunoprecipitation using an anti-DR4 antibody followed by immunoblotting using an anti-YFP antibody to detect exogenous MADD. The membrane was reprobed with an anti-DR4 antibody to show the protein loading. (B) PI3K can influence the association of exogenous MADD with DR4. HEK293 cells were transfected with wtMADD. Twenty four hours after transfection, the cells were serum starved for 20 h. Further, they were treated with LY (10 μM) for 1 h, IGF-1 (150 ng/ml) for 20 minutes. Immunoprecipitation using an anti-DR4 antibody was followed by immunoblotting using anti-YFP or anti-DR4 antibody. (C) Akt can influence exogenous MADD association with DR4. HEK293 cells were co-transfected with wtMADD along with DN-Akt or the empty vector pcDNA3.1 (pcDNA). Thirty six hours after transfection, the cells were harvested for immunoprecipitation using anti-DR4 antibody followed by immunoblotting with an anti-YFP or an anti-DR4 antibody. (D) PI3K can influence the association of endogenous MADD with DR4. HeLa cells were serum starved for 20 h, then treated with LY (10 μM) for 1 h, IGF-1 (150 ng/ml) for 20 minutes. […]
Immunoprecipitation. […] Immunoblots were prepared and analysed as described above.

caspase-8 = test: Immunoblot of caspase-8 processing in transduced PA-1 cells; conditions: PA-1, 48 h post-transduction
Experimental: To gain insight into the mechanism underlying MADD-mediated cell survival, whether caspases were activated upon abrogation of MADD expression examined. HeLa cells and PA-1 cells were collected 48 h post-transduction and probed for caspase-8 and FADD, which are components of the DISC. […] TRAIL treatment results in recruitment of procaspase-8 to the receptors followed by its cleavage resulting in its activation. The cleaved intermediate fragments (p43/p41) and the catalytically active subunits of caspase-8 (p18) were detected upon TRAIL treatment. Caspase-8 is the initiator caspase that can cause activation of the effector caspase-3. A decrease in the amount of pro-caspase-3 indicates its cleavage to form active caspase-3 only in MADD-depleted cells.
Immunoblotting. The membranes were blocked in 5% non-fat dry milk in PBS-Tween (PBS with 0.05% Tween 20) for 1 hour. Primary antibodies were used at a concentration of 1 μg/mL and the secondary antibodies were used at a 1:10000 concentration. The blots were developed by enhanced chemiluminescence according to the manufacturer's protocol (Pierce Biotechnology Inc., Rockford, Ill.).

IG20-SVs = test: RT-PCR of IG20-SVs in shRNA-transduced PA-1 cells; conditions: PA-1, 72 hours post-transduction
Experimental: The effects of IG20 down-modulation in PA-1 cells were analyzed. Down-modulation of endogenous IG20 in PA-1 cells was analyzed. RT-PCR of IG20-SVs using F2-B2 primers from PA-1 cells 72 hours post-transduction was performed. Amplification of only IG20pa and MADD using 13L-F and B2 primers was performed. Nuclear Condensation was also determined. 72 hours post-transduction, PA-1 cells were stained with Hoechst stain and analyzed by FACS. Mitochondrial Depolarization was performed. 72 hours post transduction, PA-1 cells were stained with TMRM and analyzed by FACS.
RT-PCR. Total RNA was extracted from 1×10^6 transduced cells using Trizol (Invitrogen Life Technologies, Carlsbad, Calif.), and 1 jig of RNA was used for RT-PCR using the Super-Script One-Step RT-PCR system (Invitrogen Life Technologies, Carlsbad, Calif.). Briefly, the cDNAs were synthesized at 50° C. for 30 minutes followed by incubation at 94° C. for 2 minutes. Subsequently, 35 cycles of PCR were carried out with de-naturation at 95° C. for 30 seconds, annealing at 55° C. for 30 seconds and extension at 72° C. for 1 minute. This was followed by a final incubation at 72° C. for 7 minutes. The sequences of F2-B2 and GAPDH primers were as published (Al-Zoubi et al., (2001), J Biol Chem, 276 (50), 47202-11.). 13L-Forward (5′[…]3′ (SEQ ID NO: 15)) and B2-reverse primers were used to amplify only MADD and IG20pa. […]

HeLa cells = test: Crystal violet staining, colony formation, HeLa; conditions: after 12 days
Experimental: In order to assess the effects on cell growth and proliferation, various shRNA-expressing viable cells were counted. […] The cells were stained with CFSE and cell division was monitored. […] Further confirmation was obtained by plating equal numbers of HeLa cells expressing various shRNAs and determining the number and size of colonies after 12 days.
Crystal Violet Staining. 5×10^5 HeLa and 8×10^5 PA-1 cells were plated into six-well plates. 24 hours later cells were treated with different shRNA-expressing lentiviruses for 4 hours. Cells were washed and replenished with fresh warm medium. Twelve days later, cells were fixed in ice-cold methanol and stained with crystal violet to assess viability and colony formation.

Compound	Interaction between endogenous MADD and DR4 (DR4)	Intermediate active-caspase-8 proteins (p43/41) (caspase-8)	Down-modulation of endogenous IG20-SVs (RT-PCR) (IG20-SVs)	Number of colonies (HeLa cells)	Size of colonies (HeLa cells)
O=c1cc(N2CCOCC2)oc2c(-c3ccccc3)cccc12 [LY]	reduced				
13L-shRNA: shRNA targeting exon 13L (IG20, MADD), 5′ CGGCGAATCTATGACAATC-3′ (SEQ ID NO: 4)		higher amounts of the intermediate active-caspase-8 proteins (p43/41)	abrogated only MADD expression	significantly fewer colonies	comparable to that of controls

— patent US7910723B2, “IG20 splice variants therapeutics for cancer” (The Board of Trustees of the University of Illinois, priority 2006, dated 2011)
